Among the data in US10793550B2, “4-piperidin-n-(pyrimidin-4-yl)chroman-7-sulfonamide derivatives as sodium channel inhibitors” (GENENTECH, INC., priority 2017, dated 2020) are clearance and IC50 values, retold here.

Data set [1] can be described thus: In vivo pharmacokinetic experiments (compound clearance in rats). Particulars: rat; male rats, IV administration, plasma clearance; read-out: PK (CLp, rat). As for the experimental part:
Example 6: In Vivo Pharmacokinetic Experiments (Compound Clearance in Rats)
In vivo clearance (CLp) of certain compounds was measured in order to evaluate whether these compounds were likely to be good candidates for development. Male rats were housed at controlled temperature and humidity in an alternating 12 hr light/dark cycle with access to food and water ad libitum. All in vivo studies were performed in accordance with Institutional Animal Care and Use Committee guidelines and in harmony with the Guide for Laboratory Animal Care and Use. Rats were administered IV administration of compound. Plasma was harvested from blood samples that were collected from each animal at various timepoints following the administration of compound. Plasma concentration of compound was determined by mass spectrometer, and pharmacokinetic analysis was performed using non-compartmental method using Phoenix WinNonlin. Following oral administration, percent bioavailability was determined for each animal by dividing the dose-normalized area under the plasma concentration-time curve from time 0 to the last measured concentration (AUC0-tlast) obtained following each oral dose by the mean dose-normalized AUC0-tlast of the animals dosed by IV injection.
CLp values above about 40 mL/min/kg in Example 6 are considered to be highly cleared from the body after administration of a compound to a subject, meaning that the exposure may be insufficient to be treated for a disease or disorder as provided herein.

The target of data set [2] is T1, hNav1.7 (Homo sapiens, UniProt Q15858).
T1 construct: expressed in transfected cells
T1 sequence (Q15858 whole entry): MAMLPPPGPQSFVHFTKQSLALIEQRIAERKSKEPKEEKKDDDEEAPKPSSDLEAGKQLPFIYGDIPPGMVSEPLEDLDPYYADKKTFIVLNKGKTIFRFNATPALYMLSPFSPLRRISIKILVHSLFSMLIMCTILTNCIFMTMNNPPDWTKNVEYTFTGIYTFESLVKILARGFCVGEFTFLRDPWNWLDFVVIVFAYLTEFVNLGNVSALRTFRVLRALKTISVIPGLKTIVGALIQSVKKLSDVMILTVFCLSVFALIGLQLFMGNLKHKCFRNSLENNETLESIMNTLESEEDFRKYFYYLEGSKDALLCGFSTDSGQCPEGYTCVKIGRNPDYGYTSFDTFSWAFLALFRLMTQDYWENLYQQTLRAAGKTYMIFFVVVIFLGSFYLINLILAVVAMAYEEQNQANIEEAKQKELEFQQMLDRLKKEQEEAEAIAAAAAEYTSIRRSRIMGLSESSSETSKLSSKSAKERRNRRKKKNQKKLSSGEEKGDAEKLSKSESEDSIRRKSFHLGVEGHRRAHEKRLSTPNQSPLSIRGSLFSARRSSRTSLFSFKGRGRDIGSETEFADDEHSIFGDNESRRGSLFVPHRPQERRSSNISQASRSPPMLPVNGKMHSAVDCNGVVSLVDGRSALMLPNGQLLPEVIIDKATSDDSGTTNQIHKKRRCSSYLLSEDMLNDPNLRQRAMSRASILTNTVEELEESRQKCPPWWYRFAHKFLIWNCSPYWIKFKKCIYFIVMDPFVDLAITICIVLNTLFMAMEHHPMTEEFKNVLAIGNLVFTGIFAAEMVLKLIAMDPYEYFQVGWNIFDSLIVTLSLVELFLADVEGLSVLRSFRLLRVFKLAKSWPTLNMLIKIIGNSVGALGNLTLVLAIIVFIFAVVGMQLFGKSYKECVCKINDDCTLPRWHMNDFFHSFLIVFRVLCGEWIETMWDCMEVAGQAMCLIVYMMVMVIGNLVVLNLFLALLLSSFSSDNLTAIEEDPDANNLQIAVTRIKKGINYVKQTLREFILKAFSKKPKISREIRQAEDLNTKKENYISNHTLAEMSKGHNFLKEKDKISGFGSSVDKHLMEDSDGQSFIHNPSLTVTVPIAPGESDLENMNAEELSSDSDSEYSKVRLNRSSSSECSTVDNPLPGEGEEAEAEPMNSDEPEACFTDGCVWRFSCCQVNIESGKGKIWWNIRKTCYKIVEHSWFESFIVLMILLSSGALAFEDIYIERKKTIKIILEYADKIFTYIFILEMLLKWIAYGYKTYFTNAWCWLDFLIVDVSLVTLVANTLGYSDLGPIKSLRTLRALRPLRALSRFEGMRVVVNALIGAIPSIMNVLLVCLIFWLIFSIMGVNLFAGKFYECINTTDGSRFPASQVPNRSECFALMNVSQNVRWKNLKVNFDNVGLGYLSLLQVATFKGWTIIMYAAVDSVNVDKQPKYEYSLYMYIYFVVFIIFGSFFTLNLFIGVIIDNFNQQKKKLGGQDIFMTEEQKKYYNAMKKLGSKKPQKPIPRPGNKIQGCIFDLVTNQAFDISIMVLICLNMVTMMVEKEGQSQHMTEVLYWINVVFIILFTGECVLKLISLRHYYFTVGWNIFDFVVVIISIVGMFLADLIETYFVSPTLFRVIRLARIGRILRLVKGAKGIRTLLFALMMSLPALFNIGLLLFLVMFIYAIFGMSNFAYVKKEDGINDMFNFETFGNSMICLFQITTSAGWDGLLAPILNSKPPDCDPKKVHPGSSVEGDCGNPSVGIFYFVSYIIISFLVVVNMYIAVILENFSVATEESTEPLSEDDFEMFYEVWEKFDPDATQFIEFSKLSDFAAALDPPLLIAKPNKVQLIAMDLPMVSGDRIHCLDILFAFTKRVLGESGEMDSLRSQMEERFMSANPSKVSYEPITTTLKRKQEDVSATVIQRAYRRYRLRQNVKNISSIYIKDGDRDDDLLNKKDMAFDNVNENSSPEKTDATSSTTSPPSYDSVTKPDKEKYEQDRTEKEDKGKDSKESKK
T1 sequence (Q07699 19-218 partner): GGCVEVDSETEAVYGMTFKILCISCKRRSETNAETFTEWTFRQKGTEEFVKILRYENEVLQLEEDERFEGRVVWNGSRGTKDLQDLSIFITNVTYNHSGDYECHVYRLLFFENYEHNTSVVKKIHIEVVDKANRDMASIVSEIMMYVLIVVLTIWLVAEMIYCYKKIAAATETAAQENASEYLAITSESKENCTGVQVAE
Nature of the data set: Tritiated compound competitive binding to membranes from cells expressing hNav1.7 and the β1 subunit. The settings on record: competition with 100 pM [3H]compound, 18 h, room temperature; "this model or another representative model of inhibition"; read-out: Nav1.7 inhib. in vitro. As for the experimental part: Example 5: Tritiated Compound Binding to Membranes Isolated from Cells that Heterologously Express hNav1.7 and the β1 Subunit
Preparation of membranes containing recombinantly expressed sodium channels: Frozen recombinant cell pellets were thawed on ice and diluted to 4 times the cell pellet weight with ice cold 50 mM Tris HCl, pH 7.4 buffer. The cell suspensions were homogenized on ice using a motorized glass dounce homogeniser. Homogenates were further diluted 8.4 times with ice cold 50 mM Tris HCl, pH 7.4 buffer and then centrifuged at 200×g at 4° C. for 15 min. The supernatants were collected and centrifuged at 10000×g at 4° C. for 50 min. The pellets were then re-suspended in 100 mM NaCl, 20 mM Tris HCl, pH 7.4 buffer containing 1% v/v protease inhibitors (Calbiochem) and re-homogenized on ice. The homogenized membranes were then processed through a syringe equipped with a 26 gauge needle. Protein concentrations were determined by Bradford Assay and the membranes were stored at −80° C.
Radioligand Binding Studies:
Saturation experiments. A competitive NaV1.7 inhibitor having a methyl group was tritiated. Three tritiums were incorporated in place of methyl hydrogens to generate [^3H]compound. Binding of this radioligand was performed in 5 mL borosilicate glass test tubes at room temperature. Binding was initiated by adding membranes to increasing concentrations of [^3H]compound in 100 mM NaCl, 20 mM Tris HCl, pH 7.4 buffer containing 0.01% w/v bovine serum albumin (BSA) for 18h. Non-specific binding was determined in the presence of 1 μM unlabeled compound. After 18h, the reactants were filtered through GF/C glass fiber filters presoaked in 0.5% w/v polyethylene imine. Filters were washed with 15 mL ice cold 100 mM NaCl, 20 mM Tris HCl, pH7.4 buffer containing 0.25% BSA to separate bound from free ligand. [^3H]compound bound to filters was quantified by liquid scintillation counting.
Competitive Binding Experiments:
Binding reactions were performed in 96-well polypropylene plates at room temperature for 18h. In 360 μL, membranes were incubated with 100 pM [^3H]compound and increasing concentrations of Test Compound. Non-specific binding was defined in the presence of 1 μM unlabeled compound. Reactions were transferred and filtered through 96-well glass fiber/C filter plates presoaked with 0.5% polyethylene imine. The filtered reactions were washed 5 times with 200 μL ice cold buffer containing 0.25% BSA. Bound radioactivity was determined by liquid scintillation counting.
Data Analysis: For saturation experiments, non-specific binding was subtracted from total binding to provide specific binding and these values were recalculated in terms of pmol ligand bound per mg protein. Saturation curves were constructed and dissociation constants were calculated using the single site ligand binding model: Beq=(Bmax*X)/(X+Kd), where Beq is the amount of ligand bound at equilibrium, Bmax is the maximum receptor density, Kd is the dissociation constant for the ligand, and X is the free ligand concentration. For competition studies percent inhibition was determined and IC50 values were calculated using a 4 parameter logistic model (% inhibition=(A+((B−A)/(1+((x/C)^D)))) using XLfit, where A and B are the maximal and minimum inhibition respectively, C is the IC50 concentration and D is the (Hill) slope.

The structures appear in SMILES notation. Where only a bound is given, the exact number is not on record here.

Take `N#C[C@H]1CCN([C@H]2CCOc3cc(S(=O)(=O)Nc4ncns4)ccc32)C(c2ccc(F)cc2)C1` (stereo partly drawn) [D]: the clearance in data set [1] was above 60 mL/min/kg.
Regarding `O=S(=O)(Nc1ncns1)c1ccc2c(c1)OCC[C@@H]2N1CC[C@@](O)(C(F)(F)F)C[C@H]1c1ccc(F)cc1` [A], the IC50 in data set [2] stood at 1.1 nM. Also, the clearance in data set [1] was above 60 mL/min/kg.
On to `O=S(=O)(Nc1ccncn1)c1cc2c(cc1F)[C@@H](N1CC[C@@H](OC(F)F)C[C@H]1c1ccc(F)cc1)CCO2` [Example 3, (S)-4-((2S,4R)-4-(difluoromethoxy)-2-(4-fluorophenyl)piperidin-1-yl)-6-fluoro-N-(pyrimidin-4-yl)chroman-7-sulfonamide], for which, in data set [2], the IC50 was determined as 2.2 nM. Further, the clearance in data set [1] was below 30 mL/min/kg.
On the same counts, the results for `CS(=O)(=O)[C@@H]1CCN([C@H]2CCOc3cc(S(=O)(=O)Nc4ncns4)ccc32)[C@H](c2ccc(F)cc2)C1` [F] are 8.8 nM and above 60 mL/min/kg.
With `C[C@@H]1C[C@H](c2cccc(C(F)(F)F)c2)CCN1[C@H]1CCOc2cc(S(=O)(=O)Nc3ccncn3)c(F)cc21` [Example 4, (S)-6-fluoro-4-((2R,4R)-2-methyl-4-(3-(trifluoromethyl)phenyl)piperidin-1-yl)-N-(pyrimidin-4-yl)chroman-7-sulfonamide], the IC50 in data set [2] stood at 3.4 nM. For the same compound, the clearance in data set [1] is below 30 mL/min/kg.
On the same counts, the results for `O=S(=O)(Nc1ccncn1)c1cc2c(cc1F)[C@@H](N1CC[C@@](O)(C(F)(F)F)C[C@H]1c1ccc(F)cc1)CCO2` [Example 2, (S)-6-fluoro-4-((2S,4S)-2-(4-fluorophenyl)-4-hydroxy-4-(trifluoromethyl)piperidin-1-yl)-N-(pyrimidin-4-yl)chroman-7-sulfonamide] are 0.5 nM and below 30 mL/min/kg.
On to `O=S(=O)(Nc1ncns1)c1ccc2c(c1)OCC[C@@H]2N1CC[C@@H](C(F)(F)F)C[C@H]1c1ccc(F)cc1` [C], for which the clearance in data set [1] is above 60 mL/min/kg.
As to `O=S(=O)(Nc1ncns1)c1ccc2c(c1)OCC[C@@H]2N1CC[C@H](C(F)F)C[C@@H]1c1ccc(F)cc1` [E], the IC50 in data set [2] worked out at 2.6 nM. In addition, the clearance in data set [1] is above 60 mL/min/kg.
For the compound `O=S(=O)(Nc1ccncn1)c1cc2c(cc1F)[C@@H](N1CC[C@@H](C(F)(F)F)C[C@H]1c1ccccn1)CCO2` [Example 1, (S)-6-fluoro-4-((2S,4R)-2-(pyridin-2-yl)-4-(trifluoromethyl)piperidin-1-yl)-N-(pyrimidin-4-yl)chroman-7-sulfonamide], the clearance in data set [1] was below 30 mL/min/kg.
In the case of `O=S(=O)(Nc1ncns1)c1cc2c(cc1F)[C@@H](N1CC[C@@H](C(F)(F)F)C[C@H]1c1ccccn1)CCO2` [B], the IC50 in data set [2] is below 0.5 nM. In addition, the clearance in data set [1] is above 60 mL/min/kg.
As for `N#C[C@H]1CCN([C@H]2CCOc3cc(S(=O)(=O)Nc4ncns4)ccc32)[C@@H](c2ccc(F)cc2)C1` [D], the IC50 in data set [2] turned out to be 11 nM.
